For the test, the system named is hypoxia-inducible endogenous VEGF expression in HeLa cells. Nature of the test: Hypoxia-inducible endogenous VEGF expression, VEGF ELISA of conditioned media (dose-response EC50). The class given is cell-based. Conditions: Homo sapiens, HeLa cells. In outline:
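HeLa cells were cultured 24-48 h under hypoxia (1% O2, 5% CO2, balance N2) with or without compound. Conditioned-media VEGF protein was measured by ELISA against a standard curve. EC50 and CC50 come from percentage-inhibition curves over, e.g., seven concentrations, with maximal inhibition set at 100%.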
(In general: In an ELISA, binding on a coated surface is turned into a signal by an enzyme label.)

[1] abbreviates: hypoxic conditions (1% O2, 5% CO2).

Broadly, the EC50 is the concentration at which the effect is half-maximal. A high value points to a less potent agent. `O=C(Oc1ccc(F)cc1)N1CCc2c([nH]c3ccc(Cl)cc23)C1c1ccc(OCC(O)CO)cc1` (centres unmarked) [Compound 627] came in with an EC50 (hypoxic conditions (1% O2)) of less than 8 nM.
On to `O=C(Oc1ccccc1Cl)N1CCc2c([nH]c3ccc(Cl)cc23)C1c1ccc(OCC(O)CO)cc1` (centres unmarked) [Compound 628], for which the EC50 (hypoxic conditions (1% O2)) lay in the range of 40 to 200 nM.
`O=C(Oc1ccc(Cl)cc1)N1CCc2c([nH]c3ccc(Cl)cc23)C1c1ccc(OCC(O)CO)cc1` (centres unmarked) [Compound 629] gave an EC50 (hypoxic conditions (1% O2)) of less than 8 nM.
On the same count and under the same terms, under `O=C(Oc1ccc(Br)cc1)N1CCc2c([nH]c3ccc(Cl)cc23)C1c1ccc(OCC(O)CO)cc1` (centres unmarked) [Compound 630] stands less than 8 nM; under `Cc1ccc(OC(=O)N2CCc3c([nH]c4ccc(Cl)cc34)C2c2ccc(OCC(O)CO)cc2)cc1` (centres unmarked) [Compound 631], less than 8 nM; under `O=C(Oc1ccc([N+](=O)[O-])cc1)N1CCc2c([nH]c3ccc(Cl)cc23)C1c1ccc(OCC(O)CO)cc1` (centres unmarked) [Compound 632], 8 to 40 nM.
As for `COc1ccc(OC(=O)N2CCc3c([nH]c4ccc(Cl)cc34)C2c2ccc(OCC(O)CO)cc2)cc1` (centres unmarked) [Compound 635], the EC50 (hypoxic conditions (1% O2)) lay within 8 to 40 nM.
The same measure, in the same setting: then `CC(=O)N1CCN(CC(O)COc2ccc(C3c4[nH]c5ccc(Cl)cc5c4CCN3C(=O)Oc3ccc(F)cc3)cc2)CC1` (centres unmarked) [Compound 637], with less than 8 nM; and `O=C(Oc1ccc(F)cc1)N1CCc2c([nH]c3ccc(Cl)cc23)C1c1ccc(OCC(O)CN2CCOCC2)cc1` (centres unmarked) [Compound 638], with less than 8 nM; and `O=C(Oc1ccc(Cl)cc1)N1CCc2c([nH]c3ccc(Cl)cc23)C1c1ccc(OCCCCCl)cc1` (centres unmarked) [Compound 660], with less than 8 nM.
On the same count and under the same terms, under `COCCOCCOc1ccc(C2c3[nH]c4ccc(Cl)cc4c3CCN2C(=O)Oc2ccccc2)cc1` (centres unmarked) [Compound 670] stands less than 8 nM; under `COCCOCCOc1ccc(C2c3[nH]c4ccc(Cl)cc4c3CCN2C(=O)Oc2ccccc2Cl)cc1` (centres unmarked) [Compound 674], 8 to 40 nM; under `COCCOCCOc1ccc(C2c3[nH]c4ccc(Cl)cc4c3CCN2C(=O)Oc2ccc(Cl)cc2)cc1` (centres unmarked) [Compound 675], 8 to 40 nM.
On to `COCCOCCOc1ccc(C2c3[nH]c4ccc(Cl)cc4c3CCN2C(=O)Oc2ccc(C)cc2)cc1` (centres unmarked) [Compound 677], for which the concentration for a half-maximal effect (EC50) (hypoxic conditions (1% O2)) is 8 to 40 nM.
Still for that read-out and setting: then `COCCOCCOc1ccc(C2c3[nH]c4ccc(Cl)cc4c3CCN2C(=O)Oc2ccc(OC)cc2)cc1` (centres unmarked) [Compound 678], with 40 to 200 nM.
Same read-out and setting: then `COCCOCCOc1ccc(C2c3[nH]c4ccc(Cl)cc4c3CCN2C(=O)Oc2ccc(Br)cc2)cc1` (centres unmarked) [Compound 680], with less than 8 nM; and `COCCOCCOc1ccc(C2c3[nH]c4ccc(Cl)cc4c3CCN2C(=O)Oc2ccc([N+](=O)[O-])cc2)cc1` (centres unmarked) [Compound 681], with 8 to 40 nM.
In turn, `O=C(Oc1ccc(Cl)cc1)N1CCc2c([nH]c3ccc(Cl)cc23)C1c1ccc(OCCCCN2CCCC2)cc1` (centres unmarked) [Compound 698] registered an EC50 (hypoxic conditions (1% O2)) of 8 to 40 nM.
Still for that read-out and setting: then `O=C(Oc1ccc(Cl)cc1)N1CCc2c([nH]c3ccc(Cl)cc23)C1c1ccc(OCCCCNCCO)cc1` (centres unmarked) [Compound 699], with 8 to 40 nM; and `CC(C)NCCCCOc1ccc(C2c3[nH]c4ccc(Cl)cc4c3CCN2C(=O)Oc2ccc(Cl)cc2)cc1` (centres unmarked) [Compound 700], with 8 to 40 nM.
Still for that read-out and setting: then `COCCCNCCCCOc1ccc(C2c3[nH]c4ccc(Cl)cc4c3CCN2C(=O)Oc2ccc(Cl)cc2)cc1` (centres unmarked) [Compound 701], with 8 to 40 nM; and `O=C(Oc1ccc(Cl)cc1)N1CCc2c([nH]c3ccc(Cl)cc23)C1c1ccc(OCCCCN2CCOCC2)cc1` (centres unmarked) [Compound 702], with 8 to 40 nM.
`O=C(Oc1ccc(Cl)cc1)N1CCc2c([nH]c3ccc(Cl)cc23)C1c1ccc(OCCCCN2CCCCC2)cc1` (centres unmarked) [Compound 703]: the EC50 (hypoxic conditions (1% O2)) fell in the range of 8 to 40 nM.
Same read-out and setting: then `CN1CCN(CCCCOc2ccc(C3c4[nH]c5ccc(Cl)cc5c4CCN3C(=O)Oc3ccc(Cl)cc3)cc2)CC1` (centres unmarked) [Compound 704], with 40 to 200 nM; and `O=C(Oc1ccc(Cl)cc1)N1CCc2c([nH]c3ccc(Cl)cc23)C1c1ccc(OCCCCn2ccnc2)cc1` (centres unmarked) [Compound 705], with 8 to 40 nM.
On the same count and under the same terms, under `O=C(Oc1ccc(Cl)cc1)N1CCc2c([nH]c3ccc(Cl)cc23)C1c1ccc(OCCCCn2cncn2)cc1` (centres unmarked) [Compound 706] stands less than 8 nM.
Take `O=C(Oc1ccccc1)N1CCc2c([nH]c3ccc(Cl)cc23)C1c1ccc(OCCCCl)cc1` (centres unmarked) [Compound 710]: the EC50 (hypoxic conditions (1% O2)) is less than 8 nM.
Still for that read-out and setting: under `O=C(Oc1ccc(F)cc1)N1CCc2c([nH]c3ccc(Cl)cc23)C1c1ccc(OCCCCl)cc1` (centres unmarked) [Compound 712] stands less than 8 nM; under `O=C(Oc1ccccc1Cl)N1CCc2c([nH]c3ccc(Cl)cc23)C1c1ccc(OCCCCl)cc1` (centres unmarked) [Compound 713], 8 to 40 nM; under `O=C(Oc1ccc(F)cc1)N1CCc2c([nH]c3ccc(Cl)cc23)C1c1ccc(OCCCCCl)cc1` (centres unmarked) [Compound 719], less than 8 nM.
Same read-out and setting: then `O=C(Oc1ccc(F)cc1)N1CCc2c([nH]c3ccc(Cl)cc23)C1c1ccc(OCCCCCCCl)cc1` (centres unmarked) [Compound 723], with less than 8 nM.
As for `O=C(Oc1ccc(F)cc1)N1CCc2c([nH]c3ccc(Cl)cc23)C1c1ccc(OCCCCNCCO)cc1` (centres unmarked) [Compound 735], the EC50 (hypoxic conditions (1% O2)) was less than 8 nM.
Turning to `O=C(Oc1ccc(F)cc1)N1CCc2c([nH]c3ccc(Cl)cc23)C1c1ccc(OCCCCN2CCCC2)cc1` (centres unmarked) [Compound 736], under “hypoxic conditions (1% O2)”, the EC50 is less than 8 nM.
On the same count and under the same terms, then `COCCCNCCCCOc1ccc(C2c3[nH]c4ccc(Cl)cc4c3CCN2C(=O)Oc2ccc(F)cc2)cc1` (centres unmarked) [Compound 737], with 8 to 40 nM.
The same measure, in the same setting: then `O=C(Oc1ccc(F)cc1)N1CCc2c([nH]c3ccc(Cl)cc23)C1c1ccc(OCCCCN2CCOCC2)cc1` (centres unmarked) [Compound 738], with less than 8 nM.
In turn, `O=C(Oc1ccc(F)cc1)N1CCc2c([nH]c3ccc(Cl)cc23)C1c1ccc(OCCCCN2CCCCC2)cc1` (centres unmarked) [Compound 739] registered an EC50 (hypoxic conditions (1% O2)) of less than 8 nM.
For `CN1CCN(CCCCOc2ccc(C3c4[nH]c5ccc(Cl)cc5c4CCN3C(=O)Oc3ccc(F)cc3)cc2)CC1` (centres unmarked) [Compound 740], under “hypoxic conditions (1% O2)”, the EC50 was in the range of 40 to 200 nM.
On the same count and under the same terms, then `O=C(Oc1ccc(F)cc1)N1CCc2c([nH]c3ccc(Cl)cc23)C1c1ccc(OCCCCNCCCn2ccnc2)cc1` (centres unmarked) [Compound 741], with 40 to 200 nM; and `O=C(Oc1ccc(F)cc1)N1CCc2c([nH]c3ccc(Cl)cc23)C1c1ccc(OCCCCn2ccnc2)cc1` (centres unmarked) [Compound 742], with less than 8 nM.
Consider `O=C(Oc1ccc(F)cc1)N1CCc2c([nH]c3ccc(Cl)cc23)C1c1ccc(OCCCCn2cncn2)cc1` (centres unmarked) [Compound 743], for which, where the note is “hypoxic conditions (1% O2)”, the EC50 was less than 8 nM.
Still for that read-out and setting: then `O=C(Oc1ccc(F)cc1)N1CCc2c([nH]c3ccc(Cl)cc23)C1c1ccc(OCCCCCCNCCO)cc1` (centres unmarked) [Compound 772], with less than 8 nM; and `O=C(Oc1ccc(F)cc1)N1CCc2c([nH]c3ccc(Cl)cc23)C1c1ccc(OCCCCCCN2CCCC2)cc1` (centres unmarked) [Compound 773], with less than 8 nM.
Same read-out and setting: then `CC(C)NCCCCCCOc1ccc(C2c3[nH]c4ccc(Cl)cc4c3CCN2C(=O)Oc2ccc(F)cc2)cc1` (centres unmarked) [Compound 774], with 8 to 40 nM.
Under “hypoxic conditions (1% O2)”, `COCCCNCCCCCCOc1ccc(C2c3[nH]c4ccc(Cl)cc4c3CCN2C(=O)Oc2ccc(F)cc2)cc1` (centres unmarked) [Compound 775] returned an EC50 of less than 8 nM.
`O=C(Oc1ccc(F)cc1)N1CCc2c([nH]c3ccc(Cl)cc23)C1c1ccc(OCCCCCCN2CCOCC2)cc1` (centres unmarked) [Compound 776] yielded an EC50 (hypoxic conditions (1% O2)) of less than 8 nM.
In the case of `O=C(Oc1ccc(F)cc1)N1CCc2c([nH]c3ccc(Cl)cc23)C1c1ccc(OCCCCCCN2CCCCC2)cc1` (centres unmarked) [Compound 777], the EC50 (hypoxic conditions (1% O2)) was less than 8 nM.
On the same count and under the same terms, under `CN1CCN(CCCCCCOc2ccc(C3c4[nH]c5ccc(Cl)cc5c4CCN3C(=O)Oc3ccc(F)cc3)cc2)CC1` (centres unmarked) [Compound 778] stands less than 8 nM.
On to `O=C(Oc1ccc(F)cc1)N1CCc2c([nH]c3ccc(Cl)cc23)C1c1ccc(OCCCCCCNCCCn2ccnc2)cc1` (centres unmarked) [Compound 779], for which the EC50 (hypoxic conditions (1% O2)) lay within 40 to 200 nM.
Still for that read-out and setting: under `O=C(Oc1ccc(F)cc1)N1CCc2c([nH]c3ccc(Cl)cc23)C1c1ccc(OCCCCCCn2ccnc2)cc1` (centres unmarked) [Compound 780] stands less than 8 nM; under `O=C(Oc1ccc(F)cc1)N1CCc2c([nH]c3ccc(Cl)cc23)C1c1ccc(OCCCCCCn2cncn2)cc1` (centres unmarked) [Compound 781], less than 8 nM.
The same measure, in the same setting: under `O=C(Oc1ccc(Cl)cc1)N1CCc2c([nH]c3ccc(Cl)cc23)C1c1ccc(OCCCCCCNCCO)cc1` (centres unmarked) [Compound 782] stands less than 8 nM.
The same measure, in the same setting: under `O=C(Oc1ccc(Cl)cc1)N1CCc2c([nH]c3ccc(Cl)cc23)C1c1ccc(OCCCCCCN2CCCC2)cc1` (centres unmarked) [Compound 783] stands less than 8 nM; under `CC(C)NCCCCCCOc1ccc(C2c3[nH]c4ccc(Cl)cc4c3CCN2C(=O)Oc2ccc(Cl)cc2)cc1` (centres unmarked) [Compound 784], less than 8 nM; under `COCCCNCCCCCCOc1ccc(C2c3[nH]c4ccc(Cl)cc4c3CCN2C(=O)Oc2ccc(Cl)cc2)cc1` (centres unmarked) [Compound 785], less than 8 nM.
As to `O=C(Oc1ccc(Cl)cc1)N1CCc2c([nH]c3ccc(Cl)cc23)C1c1ccc(OCCCCCCN2CCOCC2)cc1` (centres unmarked) [Compound 786], where the note is “hypoxic conditions (1% O2)”, the EC50 was less than 8 nM.
Compound `O=C(Oc1ccc(Cl)cc1)N1CCc2c([nH]c3ccc(Cl)cc23)C1c1ccc(OCCCCCCN2CCCCC2)cc1` (centres unmarked) [Compound 787] showed an EC50 (hypoxic conditions (1% O2)) of less than 8 nM.
In the case of `CN1CCN(CCCCCCOc2ccc(C3c4[nH]c5ccc(Cl)cc5c4CCN3C(=O)Oc3ccc(Cl)cc3)cc2)CC1` (centres unmarked) [Compound 788], for the setting “hypoxic conditions (1% O2)”, the EC50 lay within 8 to 40 nM.
`O=C(Oc1ccc(Cl)cc1)N1CCc2c([nH]c3ccc(Cl)cc23)C1c1ccc(OCCCCCCNCCCn2ccnc2)cc1` (centres unmarked) [Compound 789] gave an EC50 (hypoxic conditions (1% O2)) of 40 to 200 nM.
The same measure, in the same setting: then `O=C(Oc1ccc(Cl)cc1)N1CCc2c([nH]c3ccc(Cl)cc23)C1c1ccc(OCCCCCCn2ccnc2)cc1` (centres unmarked) [Compound 790], with less than 8 nM.
Still for that read-out and setting: then `O=C(Oc1ccc(Cl)cc1)N1CCc2c([nH]c3ccc(Cl)cc23)C1c1ccc(OCCCCCCn2cncn2)cc1` (centres unmarked) [Compound 791], with less than 8 nM.
With `O=C(Oc1ccc(F)cc1)N1CCc2c([nH]c3ccc(Cl)cc23)C1c1ccc(OCCn2ccnn2)cc1` (centres unmarked) [Compound 833], under setting [1], the EC50 was 40 to 200 nM.
On the same count and under the same terms, then `O=C(Oc1ccc(F)cc1)N1CCc2c([nH]c3ccc(Cl)cc23)C1c1ccc(OCCn2cncn2)cc1` (centres unmarked) [Compound 834], with 8 to 40 nM.

These data come from patent US8076352B2, “Administration of carboline derivatives useful in the treatment of cancer and other diseases” (PTC Therapeutics, Inc., priority 2004, dated 2011).
